Key:
NF-κB [1] = assay: NF-κB luciferase assay in HT29 cells; assay type: cell-based; conditions: increasing concentrations
From the text: (§1) Previously, it was discovered that PRMT5 activates NF-κB through methylation of its p65 subunit in HEK293 cells (Wei et al., Proc Natl Acad Sci USA, 2013; 110: 13516-13521; Wei et al., Cell Cycle, 2013; 13: 32-41). As shown in FIGS. 11A and 11B, overexpression of PRMT5 enhances NF-κB activity, while PRMT5 knockdown causes the opposite effect in both PANC1 (FIG. 11A) and HT-29 (FIG. 11B) cells. To determine if compound (IIa) decreases NF-κB activity, cells transfected with a NF-κB luciferase construct were treated with increasing concentrations of compound (IIa) or the control compound EPZ015666.

NF-κB [2] = assay: NF-κB luciferase assay in PANC1 cells; assay type: cell-based; conditions: increasing concentrations
From the text: as §1

In the case of `Cc1ccc(Nc2nc(NCCN(C)C)nc3c2cnn3-c2ccccc2)cc1C` [compound (IIa)], the “NF-κB activation (luciferase), HT29” value (NF-κB [1]) is reported as “corresponding decrease in NF-κB activation” and the “NF-κB activation (luciferase), PANC1” value (NF-κB [2]) is reported as “corresponding decrease in NF-κB activation”.

Reference: patent publication US12516052B2, “Methyltransferase 5 (PRMT5) inhibitors and methods of treatment” (THE TRUSTEES OF INDIANA UNIVERSITY, priority 2016, dated 2026)
